Laboratory results published in publication PMC10987543 (Cell Death Discovery, 2024).
Peptide text beside a SMILES is read from it. * marks the point of attachment. Cbz = O=C(OCc1ccccc1)*; CH2F = FC*

Tests used:
4T1 cells [1] = assay: LDH release assay (CyQUANT); type: cell-based, murine; settings: N = 3; for effect of inhibitor pretreatment on CKS1-induced release of LDH: 30 min pre-treatment (50 µM Z-VAD, 50 µM Nec-1s, 1 µM Fer-1), then 100 µM CKS1 6 hours; for release of LDH (oncolytic activity): 100 µM of the indicated peptides for 6 h, normalized to lysis buffer
Method: Ten thousand cells were seeded in a 96-well plate and incubated overnight. The cells were washed once, and the medium was replaced with serum-free media. Cells were treated with CKS1 for the indicated time and concentration. CyQUANT LDH cytotoxicity assay (Thermo Fisher Scientific) was used following the manufacturer’s instructions to measure the release of LDH. LDH release was normalized to the amount of LDH released from cells treated with lysis buffer.

4T1 cells [2] = assay: Calcein-AM live cell imaging of cytosol release; type: cell-based, murine; settings: 4T1 cells, 50 µM Z-VAD 30 minutes, then 100 µM CKS1
Method: Fluorescence labeling of cells was performed by seeding 5.0 × 10^4 4T1 cells in a 35 mm dish on a collagen-coated No. 1.5 coverslip with a 14 mm glass diameter (MatTek, Ashland, MA). After overnight incubation, the cells were washed once with serum-free media and replaced with fresh serum-free media. For cell cytosol labeling, Calcein-AM (Thermo Fisher Scientific, C1430) was added at a final concentration of 5 µg/mL and incubated for 10 min. For mitochondrial membrane labeling, JC-1 (Thermo Fisher Scientific, T3168) was added at a final concentration of 10 µg/mL and incubated for 10 min. To monitor the activity of caspases, CellEvent Caspase-3/7 Red detection reagents (Thermo Fisher Scientific, C10423) were used following the manufacturer’s instructions. For nuclear staining, Hoechst 33342 (Cell Signaling Technology, #4082) was added at a final concentration of 5 µg/mL and incubated for 10 min.
Cells were imaged on either a Zeiss LSM 700 or a 3i spinning disk confocal microscope. Samples were imaged with optimized microscope settings. Z-stack, time-lapse, or multi-channel acquisition settings were adjusted based on the experimental requirements. Images were then acquired with the appropriate excitation and emission wavelengths for each fluorophore.
Image processing was performed using Fiji software. For each image/video, the brightness and the contrast were adjusted. The time stamp and the scale bar were added. For quantification, CellProfiler was used. After cell segmentation based on the nucleus, the intensity of the signal of interest was quantified for each cell. Based on the intensity, each cells were labeled as positive or negative and the fraction of positive cells was calculated.

caspase-3 = settings: cited from earlier work
Excerpt: The factors that determine whether a peptide induces apoptosis or not are not fully known. […] Although the mechanism of how CKS1 treatment affects the mitochondria remains unanswered, the malfunctioning of mitochondria caused by CKS1 may be the ...

Solubility in water = settings: data not shown

Molecule	effect of inhibitor pretreatment on CKS1-induced release of LDH (4T1 cells [1])	release of LDH (oncolytic activity) (4T1 cells [1])	other results
CCOC(=O)c1ccc(NC2CCCCC2)c(N)c1 [Fer-1, ferrostatin-1, reference compound]	did not inhibit the release of LDH	–	–
COC(=O)C[C@H](NC(=O)[C@H](C)NC(=O)[C@@H](NC(=O)OCc1ccccc1)C(C)C)C(=O)CF [Z-VAD, reference compound] (Cbz-Val-Ala-Asp(OMe)-CH2F)	did not inhibit the release of LDH	–	effect of inhibitor pretreatment on CKS1-induced release of calcein (4T1 cells [2]): did not inhibit nor slow down the release of calcein
NGRKACLNPASPIVEEIIEEMLNS [NC1, mutant of CKS1, three lysines replaced with glutamic acids, anionic]	–	did not show oncolytic activity	–
NGRKACLNPASP [loop region of CKS1, peptide that contains the N-terminal loop region of CKS1]	–	did not	–
NGRKACLNPASPIVKKIIPEKMLNS [NC2, mutant of CKS1, single proline inserted in the middle of the α-helix]	–	did not show oncolytic activity	–
LTX-315	–	–	caspase-3 activity (caspase-3): failed to stimulate caspase-3 activity
IVKKIIEKMLNS [helical region of CKS1]	–	induced LDH release	solubility in water (Solubility in water): poorly soluble in water
CN1C(=O)NC(Cc2c[nH]c3c(Cl)cccc23)C1=O (stereo not shown) [Nec-1s, necrostatin-1 stable, reference compound]	did not inhibit the release of LDH	–	–
